In data set [1] the test system is BMMC. Put plainly: Cytotoxicity against C57BL/6J mouse BMMC upto 20 uM incubated for 4 days by CCK-8 assay. The settings on record: 96 h, time 4 day. In kind it is toxicity, cell-based.
Data set [2] has as its system BMMC. Put plainly: Inhibition of osteoclast differentiation in M-CSF/RANKL induced C57BL/6J mouse BMMC at 10 uM medium changed every other day and measured after 7 days by TRAP staining based assay. The settings on record: time 7.0 day. In kind it is functional, cell-based.
Data set [3] deals with BMMC. Briefly: Inhibition of bone resorption in RANKL induced C57BL/6J mouse BMMC at 5 to 10 uM by Cytation-5 staining based assay. In kind it is functional, cell-based. The following applies: dose 5-10 µM.
The subject of data set [4] is BMMC. Briefly: Inhibition of F-actin ring formation in RANKL induced C57BL/6J mouse BMMC at 5 to 10 uM medium changed every other day by Hoechst 33342 and TRITC-labeled phalloidin staining based assay. In kind it is functional, cell-based. The settings on record: dose 5-10 µM.

The source made the active and inactive calls. The calls are words filed in the database; no cut-off is given here.

Ac-DPHRLLQQLVASGNLIKEAVRRLHSR-NH2: the Activity entry in data set [1] is “Non-Toxic”. Take Ac-DPHRLAQQLVLSGNLIKEAVRRLHSR-NH2: the inhibition entry in data set [2] was “Active”. In addition, the Activity result in data set [1] is listed as “Non-Toxic”. For Ac-DPHRLLQQLVLSGALIKEAVRRLHSR-NH2, the Activity entry in data set [1] was “Non-Toxic”. For the substance Ac-DPHRLLQQLVLSGNLIKEAARRLHSR-NH2, the Activity result in data set [1] is “Non-Toxic”.

Turning to Ac-DPHALLQQLVLSGNLIKEAVRRLHSR-NH2, the Activity entry in data set [1] is recorded as “Non-Toxic”. As for Ac-DPHRLLQQLVLSGNLIKEAVRRLHSR-NH2, the inhibition entry in data set [2] was “Active”. In addition, in data set [1], the Activity result is on record as “Non-Toxic”. Turning to Ac-DPHRLLQQAVLSGNLIKEAVRRLHSR-NH2, the Activity result in data set [1] was “Non-Toxic”. Take Ac-DPHRLLQQLVLSGNLIKEAVRALHSR-NH2: the Activity result in data set [1] is listed as “Non-Toxic”. Turning to Ac-DPHRALQQLVLSGNLIKEAVRRLHSR-NH2, the Activity entry in data set [1] is listed as “Non-Toxic”. As for Ac-DAHRLLQQLVLSGNLIKEAVRRLHSR-NH2, the Activity entry in data set [1] is “Non-Toxic”. Ac-DPHRLLQALVLSGNLIKEAVRRLHSR-NH2: the Activity result in data set [1] is “Non-Toxic”. In the case of Ac-DPHRLLQQLVLSGNAIKEAVRRLHSR-NH2, in data set [1], the Activity entry was “Non-Toxic”.

For the substance Ac-DPHRLLQQLALSGNLIKEAVRRLHSR-NH2, the Activity result in data set [1] is recorded as “Non-Toxic”.

For the substance Ac-DPHRLLQQLVLSGNLIKEAVARLHSR-NH2, the inhibition entry in data set [2], in data set [3] and in data set [4] was “Active” throughout. Moreover, the Activity entry in data set [1] is on record as “Non-Toxic”. Turning to Ac-DPHRLLQQLVLAGNLIKEAVRRLHSR-NH2, in data set [1], the Activity entry is “Non-Toxic”. Still for that read-out and setting: with Ac-APHRLLQQLVLSGNLIKEAVRRLHSR-NH2 the entry was “Non-Toxic”. Turning to Ac-DPHRLLQQLVLSGNLIKEAVRRLHSA-NH2, the Activity entry in data set [1] is recorded as “Non-Toxic”. Same read-out and setting: under Ac-DPARLLQQLVLSGNLIKEAVRRLHSR-NH2 stands “Non-Toxic”. Take Ac-DPHRLLQQLVLSGNLIKEAVRRLASR-NH2: the Activity entry in data set [1] is given as “Non-Toxic”.

Take Ac-DPHRLLQQLVLSGNLIAEAVRRLHSR-NH2: in data set [1], the Activity entry is reported as “Non-Toxic”. Regarding Ac-DPHRLAQQLVLSANLIKEAVARLHSR-NH2, the Activity entry in data set [1] was “Non-Toxic”.

In the case of Ac-DPHRLLQQLVLSGNLIKAAVRRLHSR-NH2, the Activity result in data set [1] is on record as “Non-Toxic”.

Turning to Ac-DPHRLLQQLVLSGNLIKEAVRRLHAR-NH2, the Activity entry in data set [1] was “Non-Toxic”.

In the case of Ac-DPHRLLAQLVLSGNLIKEAVRRLHSR-NH2, in data set [1], the Activity result was “Non-Toxic”. Ac-DPHRLLQQLVLSGNLIKEAVRRAHSR-NH2: in data set [1], the Activity result was “Non-Toxic”.

As to Ac-DPHRLLQQLVLSANLIKEAVRRLHSR-NH2, the inhibition entry in data set [2], in data set [3] and in data set [4] was “Active” in each case. In addition, in data set [1], the Activity entry is listed as “Non-Toxic”. Regarding Ac-DPHRLLQQLVLSGNLAKEAVRRLHSR-NH2, the Activity result in data set [1] is given as “Non-Toxic”.

The values above are taken from ChEMBL document CHEMBL5608230, “Systematical Mutational Analysis of FRATtide against Osteoclast Differentiation by Alanine Scanning” (ACS Med Chem Lett, 2024).
